Our source for the IC50 values is patent US20110244497A1, “METHOD FOR JUDGING SUSCEPTIBILITY OF CANCER CELLS TO ANTHRACYCLINE ANTICANCER AGENT AND COMPUTER PROGRAM” (SYSMEX CORPORATION, priority 2010, published 2011).

For the experiment, the system named is 29 types of breast cancer cell lines. As to the kind of experiment: Measurement of IC50 of doxorubicin, Celltiter Glo Luminescent Cell Viability Assay. Format: cell-based. The conditions noted are these: median over 29 human breast cancer cell lines; doxorubicin 0-2000 nM; growth measured 72 hours after culture-medium exchange; used as threshold sensitive/nonsensitive. On the procedure:
29 types of breast cancer cell lines shown in Reference example 1 were inoculated into wells on two sheets of microplates at 5000 cells/100 uL/well using culture media containing doxorubicin at 0 nM, 250 nM, 500 nM, 750 nM, 1000 nM, and 2000 nM concentrations, followed by culturing for 24 hours.
Culture media containing doxorubicin at respective concentrations were prepared and the culture medium exchange was performed. Immediately after the culture-medium exchange, the growth of the cells on one of the microplates was measured using Celltiter Glo Luminescent Cell Viavility Assay (Cat#G7571: manufactured by Promega KK.). The remaining microplate was cultured under the culture conditions shown in Reference example 1 for 72 hours after the culture-medium exchange. Thereafter, the growth of the cells was measured using Celltiter Glo Luminescent Cell Viavility Assay (Cat#G7571: manufactured by Promega KK.).
On the basis of the number of the living cells measured, the concentration (IC50) of doxorubicin (the number of […]×100=50) was determined.
(In general: In ATP-based viability assays light output follows the ATP content of the culture.)

A word on the IC50: it is the concentration needed to halve the response being measured. Higher therefore signals weaker potency. `COc1cccc2c1C(=O)c1c(O)c3c(c(O)c1C2=O)C[C@@](O)(C(=O)CO)C[C@@H]3O[C@H]1C[C@H](N)[C@H](O)[C@H](C)O1` [doxorubicin] came in with an IC50 of 392 nM.
